{"source": "paper PMC3107544", "about": "(Biochemistry, 2010)", "molecules": {"B1": {"name": "PDGF-BB: human platelet-derived growth factor BB, PDGFR ligand (protein, UniProt P01127 82-190, looked up)", "Platelet-derived growth …": "SLGSLTIAEPAMIAECKTRTEVFEISRRLIDRTNANFLVWPPCVEVQRCSGCCNNRNVQCRPTQVQLRPVQVRKIEIVRKKPIFKKATVTLEDHLACKCETVAAARPVT"}}, "key": {"5-HT2A receptor [1]": {"target": "T1, 5-HT2A receptor (Rattus norvegicus, UniProt P14842)", "experiment": "cell-based", "conditions": "for EC50: pEC50 ± SEM"}, "5-HT2A receptor [2]": {"tested_on": "5-HT2A receptor", "format": "cell-based, rat", "conditions": "uninfected cortical neurons; DOI 1μM"}, "5-HT2A receptor [3]": {"target": "T1, 5-HT2A receptor", "format": "cell-based", "conditions": "DOI 1μM, infected RSK2+/+ cortical neurons"}, "5-HT2A receptor [4]": {"target": "5-HT2A receptor (Mus musculus, UniProt P35363)", "sequence (P35363 whole entry)": "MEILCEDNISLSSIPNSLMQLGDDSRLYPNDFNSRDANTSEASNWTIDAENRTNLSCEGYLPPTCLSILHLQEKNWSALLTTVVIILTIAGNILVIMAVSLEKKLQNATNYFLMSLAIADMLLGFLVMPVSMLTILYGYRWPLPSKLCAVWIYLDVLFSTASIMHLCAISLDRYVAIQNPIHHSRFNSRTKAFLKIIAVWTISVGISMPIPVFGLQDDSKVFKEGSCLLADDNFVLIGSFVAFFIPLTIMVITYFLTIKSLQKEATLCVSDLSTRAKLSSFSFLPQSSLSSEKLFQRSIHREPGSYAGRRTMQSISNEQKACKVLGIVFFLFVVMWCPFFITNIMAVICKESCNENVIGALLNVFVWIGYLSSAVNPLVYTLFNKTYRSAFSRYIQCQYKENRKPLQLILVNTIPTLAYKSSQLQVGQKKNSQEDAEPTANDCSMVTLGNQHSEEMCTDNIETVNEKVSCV", "conditions": "RSK2+/+ mVSMCs; 100nM"}, "P2Y purinergic receptor [5]": {"tested_on": "P2Y purinergic receptor", "experiment": "FLIPR Tetra P2Y-mediated Ca^2+ responses in MEFs", "format": "cell-based, mouse", "conditions": "for EC50: read-out: potency (EC50)"}, "P2Y purinergic receptor [6]": {"target": "P2Y purinergic receptor", "format": "cell-based, RSK2+/+ mouse embryonic fibroblasts"}, "P2Y purinergic receptor [7]": {"target": "P2Y purinergic receptor", "format": "cell-based, RSK2+/+ mouse embryonic fibroblasts", "remark": "listed apart in the source"}, "P2Y purinergic receptor [8]": {"target": "P2Y purinergic receptor", "format": "cell-based, RSK2−/− mouse embryonic fibroblasts"}, "P2Y purinergic receptor [9]": {"target": "P2Y purinergic receptor", "format": "cell-based, RSK2+/+ mouse embryonic fibroblasts", "remark": "listed apart in the source"}, "P2Y purinergic receptor [10]": {"target": "P2Y purinergic receptor", "format": "cell-based, RSK2−/− mouse embryonic fibroblasts", "remark": "listed apart in the source"}, "P2Y purinergic receptor [11]": {"target": "P2Y purinergic receptor", "format": "cell-based, RSK2−/− mouse embryonic fibroblasts", "remark": "listed apart in the source"}, "[12]": {"tested_on": "5-HT2A-mediated Ca^2+ responses", "experiment": "Growth factor attenuation of 5-HT2A-mediated Ca^2+ responses in MEFs", "format": "cell-based, mouse"}, "RSK2": {"tested_on": "RSK2", "experiment": "Immunoprecipitation and immunoblot of RSK2 activation", "format": "cell-based, mouse", "conditions": "for maximal activation of RSK2 (sum pixel intensity normalized to total RSK2): RSK2+/+ MEFs, 5 min, EGF 100ng/mL or IGF-1 10nM"}, "IGF-1 R": {"target": "IGF-1 R (Mus musculus, UniProt Q60751)", "sequence (Q60751 31-737 limits assumed)": "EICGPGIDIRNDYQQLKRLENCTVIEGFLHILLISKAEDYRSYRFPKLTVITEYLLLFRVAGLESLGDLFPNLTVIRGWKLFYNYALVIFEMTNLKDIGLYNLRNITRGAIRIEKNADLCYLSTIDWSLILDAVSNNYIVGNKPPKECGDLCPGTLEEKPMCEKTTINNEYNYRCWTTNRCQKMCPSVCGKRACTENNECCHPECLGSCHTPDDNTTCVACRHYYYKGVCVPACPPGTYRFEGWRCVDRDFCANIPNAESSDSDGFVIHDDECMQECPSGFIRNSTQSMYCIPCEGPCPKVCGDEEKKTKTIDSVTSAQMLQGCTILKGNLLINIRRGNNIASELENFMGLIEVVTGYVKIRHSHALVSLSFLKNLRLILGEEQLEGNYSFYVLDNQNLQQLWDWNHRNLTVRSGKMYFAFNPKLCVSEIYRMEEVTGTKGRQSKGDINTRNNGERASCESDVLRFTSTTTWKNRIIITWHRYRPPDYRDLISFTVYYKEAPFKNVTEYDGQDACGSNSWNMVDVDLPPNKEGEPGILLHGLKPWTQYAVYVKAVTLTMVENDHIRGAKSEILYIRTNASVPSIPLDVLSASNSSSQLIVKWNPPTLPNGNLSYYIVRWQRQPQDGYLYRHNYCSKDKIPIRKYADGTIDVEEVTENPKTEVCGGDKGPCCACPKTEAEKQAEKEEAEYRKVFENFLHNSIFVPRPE", "sequence (Q60751 742-1373 limits assumed)": "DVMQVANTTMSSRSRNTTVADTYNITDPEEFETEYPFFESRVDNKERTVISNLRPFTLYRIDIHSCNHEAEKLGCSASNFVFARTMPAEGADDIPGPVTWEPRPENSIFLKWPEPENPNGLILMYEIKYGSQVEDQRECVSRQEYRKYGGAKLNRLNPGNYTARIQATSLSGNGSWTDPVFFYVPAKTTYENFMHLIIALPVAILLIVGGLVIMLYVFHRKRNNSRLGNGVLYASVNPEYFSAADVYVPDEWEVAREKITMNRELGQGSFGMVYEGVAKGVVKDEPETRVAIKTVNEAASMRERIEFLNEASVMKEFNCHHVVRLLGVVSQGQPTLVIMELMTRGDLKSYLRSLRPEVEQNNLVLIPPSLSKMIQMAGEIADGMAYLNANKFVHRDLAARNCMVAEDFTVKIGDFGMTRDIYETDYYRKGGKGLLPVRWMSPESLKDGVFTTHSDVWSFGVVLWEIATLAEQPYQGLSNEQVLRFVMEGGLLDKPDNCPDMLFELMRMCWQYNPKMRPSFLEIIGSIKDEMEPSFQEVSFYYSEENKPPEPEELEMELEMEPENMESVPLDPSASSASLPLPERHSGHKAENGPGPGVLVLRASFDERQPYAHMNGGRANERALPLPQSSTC", "experiment": "Immunoblot of IGF-1 R phosphorylation", "format": "cell-based", "conditions": "RSK2+/+ MEFs; 10 nM"}, "[13]": {"tested_on": "5-HT2A-mediated Ca^2+ responses", "experiment": "Growth factor attenuation of 5-HT2A-mediated Ca^2+ responses in mVSMCs", "format": "cell-based, mouse", "conditions": "saturating 5-HT 10μM, 60 min treatment"}, "[14]": {"conditions": "RSK2+/+ MEFs, EGF 100ng/mL 0 min (untreated)"}, "[15]": {"conditions": "RSK2+/+ MEFs, EGF 100ng/mL 60 min"}, "[16]": {"conditions": "RSK2−/− MEFs, EGF 100ng/mL 0 min (untreated)"}, "[17]": {"conditions": "RSK2−/− MEFs, EGF 100ng/mL 60 min"}}, "note": "Read-outs that look alike come from different tables or passages of the source. Marks after values point to notes of the source that are not given here."}
{"molecule": "COc1ccc2[nH]cc(CCN(C)C)c2c1", "note": "[5-methoxy DMT, 5-methoxy-N,N-dimethyltryptamine]", "values": [{"measurement": "EC50", "setting": "5-HT2A receptor [1]; [14]", "value": 25.7, "unit": "nM"}, {"measurement": "EC50", "setting": "5-HT2A receptor [1]; [15]", "value": 67.6, "unit": "nM"}, {"measurement": "EC50", "setting": "5-HT2A receptor [1]; [16]", "value": 89.1, "unit": "nM"}, {"measurement": "EC50", "setting": "5-HT2A receptor [1]; [17]", "value": 89.1, "unit": "nM"}, {"measurement": "Emax", "setting": "5-HT2A receptor [1]; read-out: Emax± SEM, %, RSK2+/+ MEFs, EGF 100ng/mL 0 min (untreated)", "value": 86.7, "unit": "%"}, {"measurement": "Emax", "setting": "5-HT2A receptor [1]; read-out: Emax± SEM, %, RSK2+/+ MEFs, EGF 100ng/mL 60 min", "value": 79.6, "unit": "%"}, {"measurement": "Emax", "setting": "5-HT2A receptor [1]; read-out: Emax± SEM, %, RSK2−/− MEFs, EGF 100ng/mL 0 min (untreated)", "value": 80.4, "unit": "%"}, {"measurement": "Emax", "setting": "5-HT2A receptor [1]; read-out: Emax± SEM, %, RSK2−/− MEFs, EGF 100ng/mL 60 min", "value": 79.1, "unit": "%"}]}
{"molecule": "COc1cc(CC(C)N)c(OC)cc1I.Cl", "note": "(racemic) [DOI, (±)-2,5-dimethoxy-4-iodoamphetamine hydrochloride]", "values": [{"measurement": "Ca^2+ response in uninfected neurons", "setting": "5-HT2A receptor [2]", "value": "unresponsive"}, {"measurement": "Area under curve", "setting": "5-HT2A receptor [3]; EGF 100ng/mL 60 min", "value": "20.9 +/− 1.2 ^b"}, {"measurement": "Area under curve", "setting": "5-HT2A receptor [3]; NRG-1 100ng/mL", "value": "28.6 +/− 1.7 ^b"}, {"measurement": "Area under curve", "setting": "5-HT2A receptor [3]; RTK ligand None", "value": "33.7 +/− 1.3"}]}
{"molecule": "COc1cccc([C@H](O)C2CCN(CCc3ccc(F)cc3)CC2)c1OC", "note": "[MDL100907]", "values": [{"measurement": "block of 5-HT-elicited Ca^2+ responses", "setting": "5-HT2A receptor [4]", "value": "blocked"}]}
{"molecule": "Nc1ncnc2c1ncn2[C@@H]1O[C@H](COP(=O)(O)OP(=O)(O)OP(=O)(O)O)[C@@H](O)[C@H]1O", "note": "[ATP]", "values": [{"measurement": "Emax± SEM, %", "setting": "P2Y purinergic receptor [5]; [14]", "value": "99.7 +/− 2.0%"}, {"measurement": "Emax± SEM, %", "setting": "P2Y purinergic receptor [5]; RSK2+/+ MEFs, EGF 100ng/mL 30 min", "value": "88.4 +/− 2.5 ^d %"}, {"measurement": "Emax± SEM, %", "setting": "P2Y purinergic receptor [5]; [15]", "value": "82.5 +/− 3.2 ^d %"}, {"measurement": "Emax± SEM, %", "setting": "P2Y purinergic receptor [5]; [16]", "value": "98.6 +/− 3.3%"}, {"measurement": "Emax± SEM, %", "setting": "P2Y purinergic receptor [5]; RSK2−/− MEFs, EGF 100ng/mL 30 min", "value": "93.4 +/− 3.2%"}, {"measurement": "Emax± SEM, %", "setting": "P2Y purinergic receptor [5]; [17]", "value": "100 +/− 3.5%"}, {"measurement": "EC50", "setting": "P2Y purinergic receptor [5]; RSK2+/+ MEFs, 60 min EGF treatment", "value": 13000, "unit": "nM"}, {"measurement": "EC50", "setting": "P2Y purinergic receptor [5]; RSK2+/+ MEFs, untreated", "value": 7000, "unit": "nM"}]}
{"molecule": "Nc1ncnc2c1ncn2[C@@H]1O[C@H](COP(=O)(O)OP(=O)(O)OP(=O)(O)O)[C@@H](O)[C@H]1O", "note": "[ATP, adenosine 5'-triphosphate]", "values": [{"measurement": "RSK2+/+ MEFs, 60 min, pEC50 ± SEM", "setting": "P2Y purinergic receptor [6]", "value": "4.88 +/− 0.09 ^d"}, {"measurement": "RSK2+/+ MEFs, 0 min, pEC50 ± SEM", "setting": "P2Y purinergic receptor [7]", "value": "5.16 +/− 0.05"}, {"measurement": "RSK2−/− MEFs, 30 min, pEC50 ± SEM", "setting": "P2Y purinergic receptor [8]", "value": "5.34 +/− 0.09"}, {"measurement": "RSK2+/+ MEFs, 30 min, pEC50 ± SEM", "setting": "P2Y purinergic receptor [9]", "value": "4.95 +/− 0.06 ^d"}, {"measurement": "RSK2−/− MEFs, 60 min, pEC50 ± SEM", "setting": "P2Y purinergic receptor [10]", "value": "5.30 +/− 0.09"}, {"measurement": "RSK2−/− MEFs, 0 min, pEC50 ± SEM", "setting": "P2Y purinergic receptor [11]", "value": "5.37 +/− 0.09"}]}
{"molecule": "TGF-α: transforming growth factor-alpha, selective and potent EGFR agonist", "values": [{"measurement": "IC50 for attenuation of 5-HT2A-mediated Ca^2+ responses", "setting": "[12]; RSK2+/+ MEFs", "value": 4.1, "unit": "ng/mL"}]}
{"molecule": "IGF-1: insulin-like growth factor 1, activates the IGF-1 R", "values": [{"measurement": "maximal activation of RSK2 (sum pixel intensity normalized to total RSK2)", "setting": "RSK2", "value": "0.546 × 10^6 +/− 0.107 × 10^6"}, {"measurement": "activation of IGF-1 R (Tyr(P)1158/1162/1163)", "setting": "IGF-1 R", "value": "activated"}]}
{"molecule": "insulin: insulin, tested for attenuation of 5-HT2A receptor signaling in MEFs", "values": [{"measurement": "effect on 5-HT2A receptor signaling", "setting": "[12]; MEFs, data not shown", "value": "no effect"}, {"measurement": "activation of RSK2", "setting": "RSK2; MEFs, data not shown", "value": "modest activation"}]}
{"molecule": "EGF: human epidermal growth factor, canonical EGFR agonist", "values": [{"measurement": "IC50 for attenuation of 5-HT2A-mediated Ca^2+ responses", "setting": "[12]; RSK2+/+ MEFs", "value": 1.3, "unit": "ng/mL"}, {"measurement": "peak Ca^2+ release", "setting": "[12]; RSK2+/+ MEFs, 10nM 5-HT, 100ng/mL EGF 1hr, parallel control of IGF-1 experiments", "value": "80.7 +/− 2.3%"}, {"measurement": "maximal activation of RSK2 (sum pixel intensity normalized to total RSK2)", "setting": "RSK2", "value": "1.25 × 10^6 +/− 0.25 × 10^6"}]}
{"molecule": "B1", "values": [{"measurement": "peak Ca^2+ release", "setting": "[13]; RSK2+/+ cells", "value": "67.0 +/− 8.5%"}, {"measurement": "peak Ca^2+ release", "setting": "[13]; RSK2−/− cells", "value": "77.9 +/− 7.6%"}]}
